# Source: patent US7128897B2, “Aerosolized anti-infectives, anti-inflammatories, and decongestants for the treatment of sinusitis” (Naryx Pharma, Inc., priority 1999, dated 2006)
# What was measured:
# sinusitis = assay type: in vivo, human; details: for efficacy of nose drop: nose drop (tobramycin 80 mg/ml; Mupirocin calcium 2%)
# Description: A person had been suffering from sinusitis for most of their adult life. These sinusitis episodes seemed to be triggered by allergies. They historically had three-four (3–4) episodes of sinusitis each year, which were treated with oral antibiotics for four-eight (4–8) weeks per episode. These oral antibiotic regimens produced yeast infections, which were treated with Diflucan® (fluconazole). Relief from the headaches, malaise, facial pressure and pain, yellow-green nasal discharge, coughing and fever took up to six weeks and were treated with narcotic and non narcotic analgesics, decongestants, decongestant nasal sprays, cough suppressants, and nasal rinses. Their allergies were treated with antihistamines and anti-inflammatory agents. In an effort to reduce the duration of their sinusitis episodes, a nose drop of tobramycin 80 mg/ml was administered. […] The medication was irritating; and in order to administer the drops and try to get them into the sinus cavity, the patient had to hold their head back. This caused intolerable pain resulting in the discontinuation of the therapy. A nose drop of Bactoban® (Mupirocin calcium 2%) was tried. […] In order to eliminate the pain caused by holding their head back when administering nose drops, a nose drop of tobramycin was administered after the patient had been on oral antibiotics for a period of time.
# paranasal sinusitis = details: 4 ml of 3% FOM solution; ultrasonic-type nebulizer compared with jet-type; cited from earlier work
# [1] = test system: clinical isolates from sinusitis patients; details: one percent (1%) solution used with a nebulizer; cited from earlier work
# sinus infection = test: Nebulized antibiotic treatment of sinusitis patients (case reports, Patients A, B, C); assay type: in vivo, human; details: for time to "dumping" of green, purulent nasal discharge: nebulized three times daily
# Description: Thereafter, a preparation of tobramycin 80 mg/ml was administered using 3 ml in a Pari LC Star® nebulizer cup with adult mask attached and a Pari Proneb® compressor. The medication was nebulized three (3) times daily. After four days of therapy, the patient experienced a “dumping” of green, purulent nasal discharge. The therapy was continued for a total of seven (7) days. […] Another seven (7) day regimen of nebulized tobramycin was given to the patient.
# A preparation of cefuroxime 285 mg in 2.5 ml sterile water for injection was administered three (3) times daily using a Pari LC Star® nebulizer cup with adult mask attached and a Pari Proneb® compressor. […] After one day of therapy, a Pari Turbo® compressor was substituted for the Pari Proneb® compressor. The patient experienced a “dumping” of green, purulent nasal discharge after (3) days of therapy.
# After the seven (7) days of treatment with nebulized cefuroxime using the Pari Turbo® compressor and the Pari LC Star® nebulizer cup with mask, the patient has remained free of sinus infections for nine (9) months. They have continued to experience problems with their allergies, and while in the past these allergies triggered sinus infections, this time no such infection has recurred.
# A person had been experiencing sinus infections off and on during their adult life. They were treated with cefuroxime 285 mg in 2.5 ml of sterile water for injection three (3) times daily using a Pari LC Star® nebulizer cup with adult mask attached and a Pari Turbo® compressor. The patient experienced a “dumping” of green, purulent nasal discharge after eight (8) treatments. The therapy was continued for a total of seven (7) days. No other antibiotics were given. This patient has been free from sinus infections for six (6) months.
# They were treated with cefuroxime 285 mg in 2.5 ml of sterile water for injection three (3) times daily using a Pari LC Star® nebulizer cup with adult mask attached and a Pari Turbo® compressor. The patient experienced a “dumping” of green, purulent nasal discharge after eight (8) treatments. The therapy was continued form a total of seven (7) days. No other antibiotics were given. This patient has been free from sinus infections for six (6) months.
# refractory sinusitis = details: large particle saline aerosol therapy with tobramycin added; cited from earlier work
# [2] = Patient A, second 7 day regimen of nebulized tobramycin
structure (smiles),measurement,setting,value
"C/C(=C\C(=O)OCCCCCCCCC(=O)[O-])C[C@@H]1OC[C@H](C[C@@H]2O[C@H]2[C@@H](C)[C@H](C)O)[C@@H](O)[C@H]1O.C/C(=C\C(=O)OCCCCCCCCC(=O)[O-])C[C@@H]1OC[C@H](C[C@@H]2O[C@H]2[C@@H](C)[C@H](C)O)[C@@H](O)[C@H]1O.O.O.[Ca+2] [Bactoban, Mupirocin calcium]",efficacy of nose drop,sinusitis; Patient A,not efficacious
"C[C@@H]1O[C@@H]1P(=O)(O)O [FOM, fosfomycin]","delivery to maxillary sinus surface, ultrasonic-type vs jet-type nebulizer",paranasal sinusitis,higher concentration of FOM to the maxillary sinus surface
CO/N=C(\C(=O)N[C@@H]1C(=O)N2C(C(=O)O)=C(CSc3nnnn3C)CS[C@H]12)c1csc(N)n1 [cefmenoxime],minimum inhibitory concentrations,[1],minimum inhibitory concentrations were lower
"CO/N=C(\C(=O)N[C@@H]1C(=O)N2C(C(=O)O)=C(COC(N)=O)CS[C@H]12)c1ccco1 [cefuroxime, Cefuroxime]",adverse event during nebulized therapy,"sinus infection; Patient A, 285 mg in 2.5 ml nebulized three times daily, 7 days",contracted a yeast infection
same,time free of sinus infections after treatment,"sinus infection; Patient A, 285 mg in 2.5 ml nebulized three times daily, 7 days, Pari Turbo compressor",9 months
same,"time to ""dumping"" of green, purulent nasal discharge",sinus infection; Patient A,3 days
same,"number of treatments until ""dumping"" of green, purulent nasal discharge","sinus infection; Patient B, 285 mg in 2.5 ml nebulized three times daily",8 treatments
same,time free from sinus infections after treatment,"sinus infection; Patient B, 285 mg in 2.5 ml nebulized three times daily, 7 days",6 months
same,"number of treatments until ""dumping"" of green, purulent nasal discharge","sinus infection; Patient C, 285 mg in 2.5 ml nebulized three times daily",8 treatments
same,time free from sinus infections after treatment,"sinus infection; Patient C, 285 mg in 2.5 ml nebulized three times daily, 7 days",6 months
"NC[C@H]1O[C@H](O[C@H]2[C@H](O)[C@@H](O[C@H]3O[C@H](CO)[C@@H](O)[C@H](N)[C@H]3O)[C@H](N)C[C@@H]2N)[C@H](N)C[C@@H]1O [tobramycin, Tobramycin]",benefit of addition to saline aerosol,refractory sinusitis,minimal benefit
same,relapse after first seven day regimen,"sinus infection; Patient A, first 7 day regimen of nebulized tobramycin",relapse was experienced within a month
same,"time to ""dumping"" of green, purulent nasal discharge",sinus infection; Patient A,four
same,outcome after second seven day regimen,sinus infection; [2],sinus infection seemed to be eliminated
same,time to recurrence after second seven day regimen,sinus infection; [2],≤ 2 months
same,outcome after first seven day regimen,"sinus infection; Patient A, tobramycin 80 mg/ml, 3 ml nebulized three times daily, 7 days",sinus infection had been eliminated
same,efficacy of nose drop,sinusitis; Patient A,did not seem to work
same,efficacy of nose drop given after oral antibiotics,"sinusitis; Patient A, nose drop after a period on oral antibiotics",did not seem to work
same,tolerability of nose drop,"sinusitis; human, in vivo",irritating
